Measured values reported in PMC6858373 (Scientific Reports, 2019).
Like-named read-outs stand apart in the source and are kept apart here.

What was measured:
[1] = molecular target: full-length P. pyralis luciferase (Photinus pyralis, UniProt P08659, K549A/L550V/N119G/N50D/S548I); format: cell-based
[2] = molecular target: T1, FGF14:Nav1.6 C-tail complex (Homo sapiens, UniProt Q92915+Q9UQD0); assay: Split-luciferase complementation assay (LCA) in Clone V double stable HEK293 cells; format: cell-based
T1 construct: polymerase chain reaction (PCR) amplification of the FGF14 open reading frame (nt 1–855); C-terminal fragment of Nav1.6 (amino acids 1763–1976) fused with CD4ΔC-tail (amino acids 1–395); expressed in transfected cells
T1 sequence (Q92915 1-252 isoform Q92915-2): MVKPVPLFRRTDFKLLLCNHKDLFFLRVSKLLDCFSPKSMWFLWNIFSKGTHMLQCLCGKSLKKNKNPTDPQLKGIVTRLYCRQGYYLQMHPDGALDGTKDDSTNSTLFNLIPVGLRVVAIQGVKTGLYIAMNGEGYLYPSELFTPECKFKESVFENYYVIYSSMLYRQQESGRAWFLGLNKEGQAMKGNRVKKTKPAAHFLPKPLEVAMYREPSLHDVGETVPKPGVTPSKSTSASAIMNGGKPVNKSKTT
T1 sequence (Q9UQD0 1763-1976 limits assumed): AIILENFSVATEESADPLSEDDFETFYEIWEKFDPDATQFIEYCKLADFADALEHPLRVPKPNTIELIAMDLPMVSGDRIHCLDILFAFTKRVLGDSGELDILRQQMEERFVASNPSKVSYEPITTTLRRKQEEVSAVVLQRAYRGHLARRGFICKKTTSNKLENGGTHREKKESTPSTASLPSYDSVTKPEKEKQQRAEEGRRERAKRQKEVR

[3] = CC_NCI screening, full-length luciferase counter-screen luminescence, normalized to on-plate 0.3% DMSO controls
[4] = CC_NCI screening, full-length luciferase counter-screen, normalized to on-plate 0.3% DMSO controls
[5] = CC_NCI screening, LCA luminescence, biological replicate Set 1, normalized to on-plate 0.3% DMSO controls (n=16 per plate)
[6] = CC_NCI screening, LCA luminescence, biological replicate Set 2, normalized to on-plate 0.3% DMSO controls (n=16 per plate)
[7] = CC_NCI screening, LCA, biological replicate Set 1, normalized to on-plate 0.3% DMSO controls
[8] = CC_NCI screening, LCA, biological replicate Set 2, normalized to on-plate 0.3% DMSO controls
[9] = CC_NCI screening, average of Set 1 and Set 2, normalized to 0.3% DMSO controls
[10] = CC_NCI screening, normalized to on-plate 0.3% DMSO controls
[11] = CC_NCI screening, biological replicate Set 1, normalized to on-plate 0.3% DMSO controls
[12] = CC_NCI screening, biological replicate Set 1, normalized to on-plate 0.3% DMSO controls (n=16 per plate)
[13] = CC_NCI screening, biological replicate Set 2, normalized to on-plate 0.3% DMSO controls
[14] = CC_NCI screening, biological replicate Set 2, normalized to on-plate 0.3% DMSO controls (n=16 per plate)
[15] = average of Set 1 and Set 2, normalized to 0.3% DMSO controls

Chain of full-length P. pyralis luciferase (P08659 whole entry N50D/N119G/S548I/K549A/L550V, looked up): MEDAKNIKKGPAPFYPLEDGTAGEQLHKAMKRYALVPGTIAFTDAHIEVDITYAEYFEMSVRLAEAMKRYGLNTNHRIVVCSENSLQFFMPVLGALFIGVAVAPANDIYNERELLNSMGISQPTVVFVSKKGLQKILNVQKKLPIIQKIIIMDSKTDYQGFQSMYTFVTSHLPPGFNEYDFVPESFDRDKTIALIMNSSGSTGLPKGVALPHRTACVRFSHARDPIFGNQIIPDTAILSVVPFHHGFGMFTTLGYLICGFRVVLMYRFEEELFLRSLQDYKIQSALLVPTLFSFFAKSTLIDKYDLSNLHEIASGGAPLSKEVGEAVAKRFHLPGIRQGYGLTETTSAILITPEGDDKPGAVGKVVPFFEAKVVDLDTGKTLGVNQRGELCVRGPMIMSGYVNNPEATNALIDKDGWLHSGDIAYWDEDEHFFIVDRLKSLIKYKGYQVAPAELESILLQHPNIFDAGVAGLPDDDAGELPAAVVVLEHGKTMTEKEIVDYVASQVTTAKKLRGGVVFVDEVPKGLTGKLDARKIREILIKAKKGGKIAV

Structure (SMILES)	Luciferase Assay % Lum [1, 3] [%]	Luciferase Assay Z-score [1, 4]	Toxicity Assay % Fluor (Clone V cells; human, 16 h, 30 µM) [%]	Toxicity Assay Z-score (Clone V cells; human, 16 h, 30 µM)	Split Luciferase Assay % Lum Set 1 [2, 5] [%]	Split Luciferase Assay %Lum Set 2 [2, 6] [%]	Split Luciferase Assay Z-score Set 1 [2, 7]	Split Luciferase Assay Z-score Set 2 [2, 8]	Split Luciferase Assay %Lum Avg [2, 9] [%]	also measured
NC1(c2ccc(-c3nc4ccn5c(=O)[nH]nc5c4cc3-c3ccccc3)cc2)CCC1 [MK-2206]	85.95	-1.80	95.56	-0.62	48.16	47.85	-4.19	-4.24	48.01	–
O=C1NC(=O)/C(=C/c2ccc(-c3ccc(F)cc3O)o2)S1 [AS 252424]	–	–	–	–	–	–	–	–	–	Luciferase Assay % Lum (full-length luciferase counter-screen) [1, 10]: 69.90%; Luciferase Assay Z-score (full-length luciferase counter-screen) [1, 10]: -3.86; Toxicity Assay % Fluor (CTB cell viability fluorescence) (Clone V cells): 99.49%; Toxicity Assay Z-score (CTB cell viability) (Clone V cells): -0.07; Split Luciferase Assay Z-score Set 1 [2, 11]: -3.31; Split Luciferase Assay % Lum Set 1 [2, 12]: 59.03%; Split Luciferase Assay Z-score Set 2 [2, 13]: -4.84; Split Luciferase Assay %Lum Set 2 [2, 14]: 40.57%; Split Luciferase Assay %Lum Avg [2, 15]: 49.80%
O=C(CCBr)N1CCN(C(=O)CCBr)CC1 [Pipobroman]	–	–	98.07	-0.27	125.34	121.72	2.05	1.77	123.53	Luciferase Assay % Lum [1]: 102.03%; Luciferase Assay Z-score [1]: 0.26
CC(C)[C@H](NS(=O)(=O)c1ccc(-c2ccc(Br)cc2)cc1)C(=O)O [PD 166793]	–	–	–	–	–	–	–	–	–	Luciferase Assay % Lum (full-length luciferase counter-screen) [1, 10]: 99.99%; Luciferase Assay Z-score (full-length luciferase counter-screen) [1, 10]: 0.00; Toxicity Assay % Fluor (CTB cell viability fluorescence) (Clone V cells): 105.53%; Toxicity Assay Z-score (CTB cell viability) (Clone V cells): 0.77; Split Luciferase Assay Z-score Set 1 [2, 11]: 0.38; Split Luciferase Assay % Lum Set 1 [2, 12]: 104.69%; Split Luciferase Assay Z-score Set 2 [2, 13]: -1.11; Split Luciferase Assay %Lum Set 2 [2, 14]: 86.35%; Split Luciferase Assay %Lum Avg [2, 15]: 95.52%
CN(NC(=O)CC(=O)NN(C)C(=S)c1ccccc1)C(=S)c1ccccc1 [ELESCLOMOL]	99.01	-0.13	74.49	-3.57	30.77	35.37	-5.60	-5.26	33.07	–
Cl.Cn1c(CCCC(=O)O)nc2cc(N(CCCl)CCCl)ccc21 [Bendamustine hydrochloride]	101.61	0.21	–	–	111.21	127.96	0.91	2.27	119.58	Toxicity Assay % Fluor (Clone V cells): 87.62%; Toxicity Assay Z-score (Clone V cells): -1.73
Cn1cc(CNCC2CCN(c3ncc(C(=O)NO)cn3)CC2)c2ccccc21 [JNJ-26481585]	97.58	-0.31	–	–	112.30	109.23	0.99	0.75	110.77	Toxicity Assay % Fluor (Clone V cells): 96.89%; Toxicity Assay Z-score (Clone V cells): -0.43
Cc1nc2sccn2c(=O)c1CCN1CCC(=C(c2ccccc2)c2ccc(F)cc2)CC1 [Compound R59022]	–	–	–	–	–	–	–	–	–	Luciferase Assay % Lum (full-length luciferase counter-screen) [1, 10]: 55.65%; Luciferase Assay Z-score (full-length luciferase counter-screen) [1, 10]: -5.68; Toxicity Assay % Fluor (CTB cell viability fluorescence) (Clone V cells): 113.72%; Toxicity Assay Z-score (CTB cell viability) (Clone V cells): 1.92; Split Luciferase Assay Z-score Set 1 [2, 11]: -1.91; Split Luciferase Assay % Lum Set 1 [2, 12]: 76.42%; Split Luciferase Assay Z-score Set 2 [2, 13]: -0.10; Split Luciferase Assay %Lum Set 2 [2, 14]: 98.83%; Split Luciferase Assay %Lum Avg [2, 15]: 87.63%
Cc1cc(N2CCOCC2)cc2[nH]c(-c3c(NC[C@@H](O)c4cccc(Cl)c4)cc[nH]c3=O)nc12 [BMS-536924]	93.73	-0.80	–	–	56.86	40.57	-3.49	-4.84	48.71	Toxicity Assay % Fluor (Clone V cells): 86.04%; Toxicity Assay Z-score (Clone V cells): -1.95
N.N.O=C([O-])C1(C(=O)[O-])CCC1.[Pt+2] [Carboplatin]	–	–	–	–	–	–	–	–	–	Luciferase Assay % Lum (full-length luciferase counter-screen) [1, 10]: 96.43%; Luciferase Assay Z-score (full-length luciferase counter-screen) [1, 10]: -0.46; Toxicity Assay % Fluor (CTB cell viability fluorescence) (Clone V cells): 109.23%; Toxicity Assay Z-score (CTB cell viability) (Clone V cells): 1.29; Split Luciferase Assay Z-score Set 1 [2, 11]: 0.82; Split Luciferase Assay % Lum Set 1 [2, 12]: 110.12%; Split Luciferase Assay Z-score Set 2 [2, 13]: 1.17; Split Luciferase Assay %Lum Set 2 [2, 14]: 114.43%; Split Luciferase Assay %Lum Avg [2, 15]: 112.28%
CCCS(=O)(=O)Nc1ccc(F)c(C(=O)c2c[nH]c3ncc(Cl)cc23)c1F [PLX4720, reference compound]	–	–	93.90	-0.85	–	–	–	–	–	Luciferase Assay % Lum [1]: 79.36%; Luciferase Assay Z-score [1]: -2.64; IMin (% Luminescence) [2]: 36.71 % Luminescence; Split Luciferase Assay % Lum Set 1 [2]: 30.77%; Split Luciferase Assay %Lum Avg [2]: 36.71%; Split Luciferase Assay %Lum Set 2 [2]: 42.65%; Split Luciferase Assay Z-score Set 1 [2]: -5.60; Split Luciferase Assay Z-score Set 2 [2]: -4.67; Z-score (LCA primary screening) [2]: −5.13; IC50 ([2]; estimated, 8-point dose response 0.25-30 µM, n = 4 per concentration, library compounds, read-out: IC50): 2140 nM
COc1cc2ncnc(Nc3cccc(Br)c3)c2cc1OC [PD 153035]	–	–	98.57	-0.20	143.82	121.72	–	–	132.77	Luciferase Assay % Lum [1]: 83.75%; Luciferase Assay Z-score [1]: -2.08; Split Luciferase Assay Z-score Set 1 [2]: 3.54; Split Luciferase Assay Z-score Set 2 [2]: 1.77
CC(C)(C#N)c1cc(Cn2cncn2)cc(C(C)(C)C#N)c1 [Anastrozole]	100.06	0.01	95.38	-0.65	89.47	99.87	-0.85	-0.01	94.67	–
COc1ccc(Cl)cc1[C@]1(F)C(=O)Nc2cc(C(F)(F)F)ccc21 [BMS 204352]	36.55	-8.12	103.30	0.46	10.11	17.69	-7.26	-6.70	13.90	–
CCNC(=O)c1noc(-c2cc(C(C)C)c(O)cc2O)c1-c1ccc(CN2CCOCC2)cc1 [NVP AUY922]	86.39	-1.74	88.69	-1.58	40.55	50.98	-4.80	-3.99	45.76	–
